According to patent US11083735B2, “Methods for treating sleep disorders, sleep disturbances, and related symptoms using aminosterol compositions” (Enterin, Inc., priority 2017, dated 2021):
Values joined by “and” are separate entries in the source; they are usually repeats but may differ in a detail not shown here. Equal values may be shown once.

What was measured:
[1] = system: patients with PD and constipation; details: in vivo
Experimental: In Stage 2, 34 patients were evaluated. […] This dose was then maintained (“fixed dose”) for an additional 3-5 days. After the “fixed dose”, these patients were randomly assigned to either continued treatment at that dose or to a matching placebo, for an additional 4-6 days prior to a 2-week wash-out.
A second cohort of 19 patients received squalamine (ENT-01) escalating from 100 mg/day to a maximum of 250 mg/day without subsequent randomization to squalamine (ENT-01) or placebo. Criteria for dose selection and efficacy were identical to those used in the previous cohort.
(§1) Adverse events were coded using the current version of MedDRA. Severity of AEs were assessed by investigators according to CTCAE (v4.03): Grade 1 is labeled as Mild, Grade 2 as Moderate, and Grade 3 and above as Severe. […] The number (percentage) of subjects who experienced an AE during escalation and fixed dosing periods were summarized by dose level and overall for each stage. The denominator for calculating the percentages were based on the number of subjects ever exposed to each dose and overall.

[2] = system: patients with PD and constipation; test: Phase 2 trial Stage 1: adverse events
Experimental: In Stage 1, ten (10) PD patients received a single escalating dose of squalamine (ENT-01) every 3-7 days beginning at 25 mg and continuing up to 200 mg or the limit of tolerability, followed by 2-weeks of wash-out. Duration of this part of the trial was 22-57 days. The 10 subjects in the sentinel group were assigned to Cohort 1 and participated in 8 single dosing periods. Tolerability limits included diarrhea or vomiting.
Each dose period was staggered, so that subjects 1-2 were administered a single dose of the drug at the lowest dose of 25 mg. Once 24 hours have elapsed, and provided there are no safety concerns, the patient was sent home and brought back on day 4-8 for the next dose. During the days the subjects are home, they completed the daily diaries and e-mailed them to the study coordinators. Subjects 3-10 were dosed after the first 2 subjects have been observed for 72 hours, i.e. on Day 4. Subjects 1-2 were also brought back on Day 4-8 and given a single dose of 50 mg. Once another 24 hours have elapsed and provided there are no safety concerns, the patients were all sent home and instructed to return on Day 7 for the next dosing level. This single dosing regimen was continued until each subject was given a single dose of 200 mg or has reached a dose limiting toxicity (DLT). DLT was the dose which induces repeated vomiting, diarrhea, abdominal pain or symptomatic postural hypotension within 24 hours of dosing.
as §1

[3] = system: patient with sleeping disorder; test: Example 2: patient with sleeping disorder and constipation, oral squalamine, sleep diary and I-button; format: in vivo, human
Experimental: The patient had very significant delay in sleep onset, fragmented sleep, thrashing of arms and legs (RBD) and daytime somnolence. On polysomnography, they had apneic spells up to 17 seconds in duration with an oxygen desaturation as low as 93%. The patient slept no more than 3-4 hours, awakened 3-4 times, and each awakening lasted 30-60 minutes. Medications included clonazepam and laxatives.
Clonazepam and laxatives were discontinued and they were started on 100 mg of squalamine every other day at bedtime. This regimen had no effect on their sleep or constipation. […] They were then switched to 150 mg daily taken in the morning.
The patient's skin temperature was also monitored for fluctuations at the wrist using a temperature sensor (I-button) mounted on a wrist-band. Skin temperature at the wrist increases from about 30° C. during the day to 36° C. at night in normal individuals. This diurnal variation of skin temperature correlates well with sleep-wake cycles. When it reaches 34° C., subjects fall asleep; during the night, if it falls below 34° C., subjects awaken. During the day, skin temperature is below 30° C. and subjects remain awake.
Once the patient's Circadian rhythm was restored, the patient started sleeping better at night and stopped falling asleep during the day.

[4] = system: Intrinsic primary afferent neurons (IPAN) of the jejunum; test: IPAN patch clamp, jejunum with intact luminal epithelium; set-up: species or system mouse; details: lumen perfused with 30 μM squalamine; 5.5 before
Experimental: Squalamine evoked bursts of action potential lasting for 10 to 30 min after application of a brief (20 ms) 50 μL puff of squalamine onto the epithelium.
To determine the mechanism by which squalamine stimulated intestinal motility, electrophysiological studies were conducted on single neurons within the colon or jejunum of WT mice, using published methods. Intrinsic primary afferent neurons (IPAN) of the jejunum were patch clamped from the adventitial surface, while the lumen of the jejunum was perfused with either Krebs's buffer or buffer containing 30 μM squalamine. The IPANs are multipolar neurons that receive sensory information from the lumen and then communicate with other divisions within the ENS to influence peristalsis as well as direct information rostrally.
In this experiment IPAN excitability was measured by stimulating the neuron with a single standard pulse, and counting the number of subsequent spontaneous discharges.

[5] = system: vagal afferent fibers; test: Multiunit firing of a jejunal branch of the vagus (mesenteric nerve); set-up: species or system mouse; details: luminal squalamine
Experimental: Squalamine was applied into the lumen by gravity feed 11 min after beginning the recording. […] The Control represents background discharge before applying squalamine, and the Peak gives the average firing frequency during a 3 min period at the peak of the response.
To determine whether the electrical activity stimulated by the luminal application of squalamine was principally contained within the ENS of the intestine, or whether it communicated information rostrally to the CNS, a further experiment was designed in which multiunit fiber firing rates were measured from a single jejunal branch of the vagus. Squalamine was introduced 11 minutes after recordings were begun. Vagal afferent firing frequency increased almost immediately thereafter to 3 fold the initial rate within a few minutes.

[6] = Stage 1, 10 dosed, Unrelated to ENT-01
[7] = 150 mg daily taken in the morning

Structure (SMILES): CC(C)[C@@H](CC[C@@H](C)[C@H]1CC[C@H]2[C@@H]3[C@H](O)C[C@H]4C[C@@H](NCCCNCCCCN)CC[C@]4(C)[C@H]3CC[C@]12C)OS(=O)(=O)O (single isomer, unassigned; ent-01) [ENT-01]
- Eye infection, Moderate [1]: 0 n, %
- AEs confined to the GI tract ([2]; Stage 1): 88%
- Diarrhea, patients ([2]; Stage 1, 4/10): 40%
- nausea, patients ([2]; Stage 1, 4/10): 40%
- Abdominal pain, Mild ([2]; Stage 1, 10 dosed): 2(20) n, %
- Abdominal pain, Moderate ([2]; Stage 1, 10 dosed): 3(30) n, %
- Blood in urine, Moderate ([2]; Stage 1, 10 dosed): 0 n, %
- Diarrhea, Mild ([2]; Stage 1, 10 dosed): 1(10) n, %
- Diarrhea, Moderate ([2]; Stage 1, 10 dosed): 3(30) n, %
- Diarrhea, Severe ([2]; Stage 1, 10 dosed): 0 n, %
- Difficulty falling asleep, Mild ([2]; Stage 1, 10 dosed): 0 n, %
- Difficulty falling asleep, Moderate ([2]; Stage 1, 10 dosed): 0 n, %
- Dizziness, Mild ([2]; Stage 1, 10 dosed): 0 n, %
- Dizziness, Moderate ([2]; Stage 1, 10 dosed): 0 n, %
- Flatulence, Mild ([2]; Stage 1, 10 dosed): 2(20) n, %
- Flatulence, Moderate ([2]; Stage 1, 10 dosed): 0 n, %
- Headache, Mild ([2]; Stage 1, 10 dosed): 1(10) n, %
- Headache, Moderate ([2]; Stage 1, 10 dosed): 0 n, %
- Increased urinary frequency, Mild ([2]; Stage 1, 10 dosed): 0 n, %
- Increased urinary frequency, Moderate ([2]; Stage 1, 10 dosed): 0 n, %
- Loss of appetite, Moderate ([2]; Stage 1, 10 dosed): 0 n, %
- Lower GI bleed, Severe ([2]; Stage 1, 10 dosed): 0 n, %
- Nausea, Mild ([2]; Stage 1, 10 dosed): 4(40) n, %
- Nausea, Moderate ([2]; Stage 1, 10 dosed): 0 n, %
- Skin lesions-rash, Mild ([2]; Stage 1, 10 dosed): 0 n, %
- Skin lesions-rash, Moderate ([2]; Stage 1, 10 dosed): 0 n, %
- Urinary retention, Mild ([2]; Stage 1, 10 dosed): 0 n, %
- Urinary retention, Moderate ([2]; Stage 1, 10 dosed): 0 n, %
- Vomiting, Mild ([2]; Stage 1, 10 dosed): 1(10) n, %
- Vomiting, Moderate ([2]; Stage 1, 10 dosed): 0 n, %
- Worsening acid reflux, Mild ([2]; Stage 1, 10 dosed): 0 n, %
- Worsening acid reflux, Moderate ([2]; Stage 1, 10 dosed): 0 n, %
- Worsening hemorrhoid, Mild ([2]; Stage 1, 10 dosed): 0 n, %
- Worsening hemorrhoid, Moderate ([2]; Stage 1, 10 dosed): 0 n, %
- Blood in urine, Mild [2, 6]: 1(10) n, %
- Loss of appetite, Mild [2, 6]: 1(10) n, %
- Common adverse events by dose: Diarrhea ([2]; Stage 1, dose 25 mg): 1
- Common adverse events by dose: Nausea ([2]; Stage 1, dose 25 mg): 0
- Common adverse events by dose: Vomiting ([2]; Stage 1, dose 25 mg): 0
- Common adverse events by dose: Diarrhea ([2]; Stage 1, dose 50 mg): 1
- Common adverse events by dose: Nausea ([2]; Stage 1, dose 50 mg): 0
- Common adverse events by dose: Vomiting ([2]; Stage 1, dose 50 mg): 0
- Common adverse events by dose: Diarrhea ([2]; Stage 1, dose 75 mg): 1
- Common adverse events by dose: Nausea ([2]; Stage 1, dose 75 mg): 0
- Common adverse events by dose: Vomiting ([2]; Stage 1, dose 75 mg): 0
- Common adverse events by dose: Diarrhea ([2]; Stage 1, dose 100 mg): 0
- Common adverse events by dose: Nausea ([2]; Stage 1, dose 100 mg): 1
- Common adverse events by dose: Vomiting ([2]; Stage 1, dose 100 mg): 1
- Common adverse events by dose: Diarrhea ([2]; Stage 1, dose 125 mg): 1
- Common adverse events by dose: Nausea ([2]; Stage 1, dose 125 mg): 2
- Common adverse events by dose: Vomiting ([2]; Stage 1, dose 125 mg): 1
- Common adverse events by dose: Diarrhea ([2]; Stage 1, dose 150 mg): 1
- Common adverse events by dose: Nausea ([2]; Stage 1, dose 150 mg): 0
- Common adverse events by dose: Vomiting ([2]; Stage 1, dose 150 mg): 0
- Common adverse events by dose: Diarrhea ([2]; Stage 1, dose 175 mg): 1
- Common adverse events by dose: Nausea ([2]; Stage 1, dose 175 mg): 1
- Common adverse events by dose: Vomiting ([2]; Stage 1, dose 175 mg): 0
- Common adverse events by dose: Diarrhea ([2]; Stage 1, dose 200 mg): 0
- Common adverse events by dose: Nausea ([2]; Stage 1, dose 200 mg): 2
- Common adverse events by dose: Vomiting ([2]; Stage 1, dose 200 mg): 0

Structure (SMILES): CC(C)[C@@H](CC[C@@H](C)[C@H]1CC[C@H]2[C@@H]3[C@H](O)C[C@H]4C[C@@H](NCCCNCCCCN)CC[C@]4(C)[C@H]3CC[C@]12C)OS(=O)(=O)O [squalamine]
- effect on sleep or constipation ([3]; 100 mg every other day at bedtime): no effect
- time to fall asleep (I-button) ([3]; 100 mg given at night, FIG. 8A): 2.5 h
- total sleep per night (I-button) ([3]; 100 mg given at night, FIG. 8A): 3 h
- Delay ([3]; 125 mg switch, days 114-118): 45 min
- Fragments awake ([3]; 125 mg switch, days 114-118): 60 min
- Total hrs sleep ([3]; 125 mg switch, days 114-118): 7.5 h and 6.5 h and 8.0 h
- total hours of sleep (I-button) ([3]; 150 mg): 4 to 5 h
- Total hrs sleep ([3]; 150 mg daily am dose, Mean row covers all on-treatment days (pre mean 6.2)): 6.0 h
- Fragments awake ([3]; 150 mg daily am dose, Mean row covers all on-treatment days (pre mean 90)): 120 min
- effect on sleep or constipation ([3]; 150 mg daily at bedtime): without effect
- arms and legs thrashing in the night [3, 7]: stopped thrashing
- bowels [3, 7]: regularized almost immediately
- delay in sleep onset (I-button) ([3]; 150 mg, FIG. 8C): 1 h
- delay in sleep onset (I-button) ([3]; 150 mg, FIG. 8D): 0.5 h
- Sleep efficiency ([3]; On treatment (Pre-treatment 74)): 82%
- Fragments awake during night ([3]; On treatment (Pre-treatment 90)): 56 min
- Delay in falling asleep ([3]; On treatment (Pre-treatment 146)): 60 min
- diurnal rhythm (I-button, periodogram, FIG. 12) ([3]; several months into treatment): clearly been restored
- number of discharges stimulated by a single electrical impulse (IPAN excitability) [4]: 8.8
- persistence of increased firing rate [5]: at least 20 minutes
- vagal afferent firing frequency relative to the initial rate ([5]; within a few minutes): 3 fold
